{"source": "paper PMC5069162", "about": "(Anesthesiology, 2016)", "key": {"11β-hydroxylase [1]": {"molecular_target": "11β-hydroxylase", "details": "estimated by Zolle et al.; cited from earlier work"}, "[2]": {"tested_on": "H295R adrenocortical cells", "details": "cited from earlier work"}, "11β-hydroxylase [3]": {"molecular_target": "T1, 11β-hydroxylase (Rattus norvegicus, UniProt P15393)", "T1 sequence (P15393 25-499)": "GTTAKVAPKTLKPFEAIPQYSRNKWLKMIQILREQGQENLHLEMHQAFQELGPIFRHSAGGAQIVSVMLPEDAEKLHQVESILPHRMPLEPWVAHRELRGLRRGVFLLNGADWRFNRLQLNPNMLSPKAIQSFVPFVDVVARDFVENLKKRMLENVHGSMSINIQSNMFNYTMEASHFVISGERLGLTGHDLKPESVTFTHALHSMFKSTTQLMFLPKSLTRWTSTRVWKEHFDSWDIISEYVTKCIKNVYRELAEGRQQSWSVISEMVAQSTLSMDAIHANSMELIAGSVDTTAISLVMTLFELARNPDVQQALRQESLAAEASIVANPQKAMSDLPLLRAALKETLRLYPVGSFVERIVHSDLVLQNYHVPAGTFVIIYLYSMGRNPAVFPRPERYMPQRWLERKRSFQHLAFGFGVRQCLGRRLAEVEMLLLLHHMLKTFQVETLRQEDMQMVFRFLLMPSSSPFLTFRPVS", "format": "binding", "details": "for Hill coefficient for inhibition of specific 3H-etomidate binding / IC50: 2 nM 3H-etomidate; for Hill coefficient for inhibition of specific 3H-etomidate binding: equation 2; for IC50 higher than that of etomidate: ratio of IC50s for 3H-etomidate binding; for IC50: 0.07 mg/ml protein"}, "rat adrenocortical cells": {"tested_on": "rat adrenocortical cells", "details": "read-out: IC50 for inhibiting corticosterone synthesis; cited from earlier work"}, "11β-hydroxylase [4]": {"molecular_target": "T1, 11β-hydroxylase", "format": "binding"}, "rats": {"tested_on": "rats", "details": "in rats; cited from earlier work"}, "[5]": {"details": "after 2-hr infusion of parent drug in dogs; cited from earlier work"}, "[6]": {"details": "read-out: half-inhibitory concentration (IC50) for specific 3H-etomidate binding"}, "[7]": {"details": "half-inhibitory concentration (IC50) for specific 3H-etomidate binding"}}, "note": "Values joined by “and” are separate entries in the source; they are usually repeats but may differ in a detail not shown here. Equal values may be shown once. Read-outs that look alike come from different tables or passages of the source.", "data": [{"compound": "COC(=O)c1cncn1C(C)c1ccc(I)cc1", "note": "(centres unmarked)", "values": [{"measurement": "Kd", "setting": "11β-hydroxylase [1]", "value": "11.6 ± 2.5", "unit": "nM"}]}, {"compound": "CCOC(=O)c1cccn1[C@H](C)c1ccccc1", "note": "[carboetomidate]", "values": [{"measurement": "IC50 for suppressing in vitro cortisol synthesis higher than etomidate", "setting": "[2]; H295R adrenocortical cells", "value": 2000, "unit": "fold"}, {"measurement": "potency at inhibiting cortisol synthesis relative to etomidate", "setting": "[2]; adrenocortical cell line", "value": "three orders of magnitude less potent than etomidate"}, {"measurement": "Hill coefficient for inhibition of specific 3H-etomidate binding", "setting": "11β-hydroxylase [3]", "value": "−0.27"}, {"measurement": "IC50 higher than that of etomidate", "setting": "11β-hydroxylase [3]", "value": 1900, "unit": "fold"}, {"measurement": "IC50", "setting": "11β-hydroxylase [3]; [6]", "value": "≥ 50 µM and 50 µM"}]}, {"compound": "Cc1cccc([C@H](C)c2cnc[nH]2)c1C", "note": "[dexmedetomidine, reference compound]", "values": [{"measurement": "IC50", "setting": "rat adrenocortical cells", "value": 1000, "unit": "nM"}, {"measurement": "Hill coefficient for inhibition of specific 3H-etomidate binding", "setting": "11β-hydroxylase [3]", "value": "−0.33"}, {"measurement": "IC50", "setting": "11β-hydroxylase [3]; [7]", "value": 2.2, "unit": "µM"}]}, {"compound": "CCOC(=O)c1cncn1[C@H](C)c1ccccc1", "note": "[etomidate, reference compound]", "values": [{"measurement": "Kd", "setting": "11β-hydroxylase [4]", "value": 21, "unit": "nM"}, {"measurement": "maximum concentration of binding sites (Bmax), homologous competition", "setting": "11β-hydroxylase [4]; 2 nM 3H-etomidate vs cold etomidate, equation 1", "value": "11,700 CPM"}, {"measurement": "Hill coefficient for inhibition of specific 3H-etomidate binding", "setting": "11β-hydroxylase [3]", "value": "−0.82"}, {"measurement": "hypnotic potency", "setting": "rats", "value": "0.53 ± 0.17", "unit": "mg/kg"}]}, {"compound": "C[C@H](c1ccccc1)n1cncc1C(=O)O", "note": "[etomidate-CA]", "values": [{"measurement": "Hill coefficient for inhibition of specific 3H-etomidate binding", "setting": "11β-hydroxylase [3]", "value": "−0.32"}, {"measurement": "IC50", "setting": "11β-hydroxylase [3]; [6]", "value": 1100, "unit": "µM"}, {"measurement": "maximal metabolite concentration", "setting": "[5]", "value": "1680 ng/ml and 7.8 μM"}]}, {"compound": "CNC1(c2ccccc2Cl)CCCCC1=O", "note": "(centres unmarked) [ketamine, reference compound]", "values": [{"measurement": "Hill coefficient for inhibition of specific 3H-etomidate binding", "setting": "11β-hydroxylase [3]", "value": "−0.23"}, {"measurement": "IC50", "setting": "11β-hydroxylase [3]; [7]", "value": "≥ 50 µM and 79 µM"}]}, {"compound": "CC(C)c1cccc(C(C)C)c1O", "note": "[propofol, reference compound]", "values": [{"measurement": "IC50", "setting": "11β-hydroxylase [3]; [7]", "value": "> 100", "unit": "µM"}]}, {"compound": "cyclopropyl methoxycarbonyl metomidate [CPMM]", "values": [{"measurement": "Hill coefficient for inhibition of specific 3H-etomidate binding", "setting": "11β-hydroxylase [3]", "value": "−0.55"}, {"measurement": "IC50 higher than that of etomidate", "setting": "11β-hydroxylase [3]", "value": 5.5, "unit": "fold"}, {"measurement": "IC50", "setting": "11β-hydroxylase [3]; [6]", "value": 0.143, "unit": "µM"}, {"measurement": "hypnotic potency", "setting": "rats", "value": "0.69 ± 0.04", "unit": "mg/kg"}]}]}
